These are literature values, as cited in US20080299102A1, “Novel BACE proteins, nucleic acid molecules therefor, novel crystal structure of novel BACE proteins, and methods for making and using” (priority 2001, published 2008).

The target in the data set is BACE (Homo sapiens, UniProt P56817). To be noted: general statement in the description, no test data given.

Where a SMILES comes first, the peptide text is derived from it. [ ]: non-standard residue; d: D form. The star is where a group is joined. Sta = CC(C)C[C@H](N)[C@@H](O)CC(=O)O; Isovaleryl = CC(C)CC(=O)*

Sequence of BACE (P56817 46-501): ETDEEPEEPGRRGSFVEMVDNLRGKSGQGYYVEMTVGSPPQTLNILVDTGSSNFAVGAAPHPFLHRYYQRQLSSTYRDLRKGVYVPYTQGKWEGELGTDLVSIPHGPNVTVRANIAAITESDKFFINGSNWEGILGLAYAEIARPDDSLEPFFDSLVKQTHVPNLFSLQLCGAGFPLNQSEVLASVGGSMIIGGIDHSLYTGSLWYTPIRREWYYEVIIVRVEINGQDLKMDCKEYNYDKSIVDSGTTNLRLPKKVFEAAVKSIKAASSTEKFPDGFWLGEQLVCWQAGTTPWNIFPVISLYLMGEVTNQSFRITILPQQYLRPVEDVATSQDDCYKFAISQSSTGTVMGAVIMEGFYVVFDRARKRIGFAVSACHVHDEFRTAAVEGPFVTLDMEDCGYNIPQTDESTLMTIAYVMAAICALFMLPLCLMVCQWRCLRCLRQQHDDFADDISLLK

Regarding `CC(C)CC(=O)N[C@H](C(=O)N[C@H](C(=O)N[C@@H](CC(C)C)[C@@H](O)CC(=O)N[C@@H](C)C(=O)N[C@@H](CC(C)C)[C@@H](O)CC(=O)O)C(C)C)C(C)C` [pepstatin] (Isovaleryl-VV[Sta]A[Sta]-OH), the “inhibition of BACE” value is given as “not inhibited”.
